Source: US6071945A, “8H-thieno-[2,3-b]pyrrolizin-8-one compounds” (Adir et Compagnie, priority 1998, dated 2000)

What was measured:
[1] = tested on: IGROV1 ovarian carcinoma; assay: In vivo anti-tumour activity on the IGROV1 ovarian carcinoma; parameters: species or system nude BABL/C mice; details: 200 mg/kg, intraperitoneal, once per week on days 4, 11 and 18
Method: (§1) The anti-tumour activity is expressed as % T/C: [formula]
IGROV1 tumour cells (10^7 cells) were incubated on day 0 in the peritoneal cavity of nude BABL/C mice (groups of 5 animals). The products were administered by the intraperitoneal route once per week on days 4, 11 and 18. The anti-tumour activity is expressed as % T/C as defined hereinbefore. The compound of Example 8 is active at the 200 mg/kg dose and increases the survival of the treated animals by 60% (T/C=160%).

[2] = tested on: L1210 murine leukaemia cells; assay: In vitro cytotoxicity (Microculture Tetrazolium Assay), L1210; type: cell-based; details: Mus musculus, 48 h; L1210, 2 days incubation; read-out: IC50, concentration that inhibits the proliferation of the treated cells by 50%
Method: (§2) Six cell lines were used:
(§3) The cells are cultured in RPMI 1640 complete culture medium containing 10% fetal calf serum, 2 mM glutamine, 50 units/ml of penicillin, 50 μg/ml of streptomycin and 10 mM Hepes, pH=7.4. The cells are distributed on microtitre plates and exposed to the cytotoxic compounds. The cells are then incubated for 2 days (P388, L1210) or 4 days (A549, KB-A1, KB-3-1, IGROV1). The number of viable cells is then quantified by means of a calorimetric assay, the Microculture Tetrazolium Assay (Cancer Res. 1987, 47, 939-942).
(§4) The results are expressed as IC50, the concentration of cytotoxic agent that inhibits the proliferation of the treated cells by 50%.

[3] = tested on: KB-A1 multi-drug resistant (adriamycin) human epidermoid carcinoma cells; assay: In vitro cytotoxicity (Microculture Tetrazolium Assay), KB-A1; type: cell-based; details: 96 h, KB-A1, 4 days incubation, read-out: IC50, concentration that inhibits the proliferation of the treated cells by 50%
Method: as §2
(§5) 1 human epidermoid carcinoma, KB-3-1 , and the corresponding resistant line, KB-A 1, the multi-drug, resistance of which was produced using adriamycin (ADR),
as §3, §4

[4] = tested on: cells originating from human solid tumours; assay: In vitro cytotoxicity, human solid tumour cells compared with murine leukaemias; type: cell-based; details: versus P388 and L1210
Method: as §2, §3, §4

[5] = tested on: A549 human non-small-cell lung carcinoma cells; assay: In vitro cytotoxicity (Microculture Tetrazolium Assay), A549; type: cell-based; details: 96 h, A549, 4 days incubation, read-out: IC50, concentration that inhibits the proliferation of the treated cells by 50%
Method: as §2
1 human non-small-cell lung carcinoma, A549,
as §3, §4

[6] = tested on: L1210 cells; assay: Action on the cell cycle; type: cell-based, murine; details: 500 nM, 21 hours, 37° C.; control: 20%
Method: L1210 cells are incubated for 21 hours at 37° C. in the presence of different concentrations of the products being tested. The cells are then fixed using 70% (v/v) ethanol, washed twice in PBS and incubated for 30 minutes at 20° C. in PBS containing 100 μg/ml of RNase and 50 μg/ml of propidium iodide. The results are expressed as the percentage of cells that have accumulated in the G2+M phase after 21 hours, compared to the control (control: 20%). At a concentration of 500 nM, the compound of Example 8 causes 80-90% of the cells to accumulate in the G2+M phase after 21 hours.

[7] = tested on: P388 murine leukaemia cells; assay: In vitro cytotoxicity (Microculture Tetrazolium Assay), P388; type: cell-based; details: Mus musculus, 48 h; P388, 2 days incubation; read-out: IC50, concentration that inhibits the proliferation of the treated cells by 50%
Method: as §2, §3, §4

[8] = tested on: IGROV1 human ovarian carcinoma cells; assay: In vitro cytotoxicity (Microculture Tetrazolium Assay), IGROV1; type: cell-based; details: IGROV-1, 96 h, IGROV1, 4 days incubation, read-out: IC50, concentration that inhibits the proliferation of the treated cells by 50%
Method: as §2
1 human ovarian carcinoma, IGROV1.
as §3, §4

[9] = tested on: P388 leukaemia; assay: In vivo anti-tumour activity on the P388 leukaemia; parameters: species or system female BDF1 mice; details: intraperitoneal, once per day for 4 days (D1-4)
Method: Line P388 (murine leukaemia) was supplied by the National Cancer Institute (Frederick, U.S.A.). The tumour cells (10^6 cells) were inoculated on day 0 into the peritoneal cavity of female BDF1 mice (Iffa-Credo, France) weighing from 18 to 20 g (groups of 6 animals). The products were administered by the intraperitoneal route once per day for 4 days (D1-4) at the doses indicated.
as §1

[10] = tested on: KB-3-1 human epidermoid carcinoma cells; assay: In vitro cytotoxicity (Microculture Tetrazolium Assay), KB-3-1; type: cell-based; details: 96 h, KB-3-1, 4 days incubation, read-out: IC50, concentration that inhibits the proliferation of the treated cells by 50%
Method: as §2, §5, §3, §4

## O=C1c2scc(-c3ccc(O)c(O)c3)c2-n2cccc21 [Example 8, 3-(3,4-Dihydroxyphenyl)-8H-thieno[2,3-b]pyrrolizin-8-one]
[1]
  T/C: 160%
  increase in survival of the treated animals: 60%
[2]
  IC50: 222 nM
[3]
  IC50: 22 nM
[4]
  effect on cells originating from human solid tumours compared with the two murine leukaemias: more potent effect on the cells originating from human solid tumours than on the two murine leukaemias
[5]
  IC50: 122 nM
[6]
  percentage of cells that have accumulated in the G2+M phase: 80-90%
[7]
  IC50: 356 nM
[8]
  IC50: 56 nM
[9]; Mus musculus, P388, ip, read-out: dose from which the compound is active
  minimal effective dose: ≥ 25 mg/kg
[9]; active from the 25 mg/kg dose
  increase in survival of the treated animals: 70%
[10]
  IC50: 33 nM
